Data from patent US4100285A, “N-substituted trialkoxybenzyl piperazine derivatives” (Nippon Shinyaku Co., Ltd., priority 1976, dated 1978).

Experiments:
[1] = tested on: removed guinea pig heart; assay: Cardiovascular activity measured according to Langedorff's method by using the removed guinea pig heart; conditions: Concentration 10^-4 g/ml; for Heart Movements: Amplitude / Heart Movements: Tonus: arrow symbols
Method: (§1) For administration of the compounds of this invention into the human body, it is recommended to give them at the dose of 10 to 500 mg/day for internal administration and 1 to 50 mg/day for intravenous aministration. The compounds can be administered as such or in combination with a pharmaceutical carrier conventionally employed in cardiovascular and like preparations.

[2] = LD50 on mice; conditions: in vivo, ip; mouse
Method: as §1

COc1ccc(CN2CCN(CC=C(C)C)CC2)c(OC)c1OC [Example 1]
Coronary perfusion pressure (Δ%) [1]: 5.7 Δ%
Heart rate (Δ%) [1]: -18.2 Δ%
Heart Movements: Amplitude [1]: .dwnarw.
Heart Movements: Tonus [1]: →

COc1ccc(CN2CCN(CC=Cc3ccccc3)CC2)c(OC)c1OC [Example 2]
Coronary perfusion pressure (Δ%) [1]: -11.1 Δ%
Heart rate (Δ%) [1]: -60.3 Δ%
Heart Movements: Amplitude [1]: .dwnarw.
Heart Movements: Tonus [1]: →

COc1ccc(CN2CCN(c3nc(N)nc(N)n3)CC2)c(OC)c1OC [Example 3]
Coronary perfusion pressure (Δ%) [1]: 4.4 Δ%
Heart rate (Δ%) [1]: -21.9 Δ%
Heart Movements: Amplitude [1]: .dwnarw.
Heart Movements: Tonus [1]: →

COc1ccc(CN2CCN(CCN3CCOCC3)CC2)c(OC)c1OC [Example 4]
Coronary perfusion pressure (Δ%) [1]: -2.1 Δ%
Heart rate (Δ%) [1]: -8.6 Δ%
Heart Movements: Amplitude [1]: .uparw.
Heart Movements: Tonus [1]: →
LD50 [2]: 567 mg/kg

COc1ccc(CN2CCN(CCN3CCN(Cc4ccc(OC)c(OC)c4OC)CC3)CC2)c(OC)c1OC [Example 6]
Coronary perfusion pressure (Δ%) [1]: -3.7 Δ%
Heart rate (Δ%) [1]: -11.7 Δ%
Heart Movements: Amplitude [1]: .dwnarw.
Heart Movements: Tonus [1]: →

COc1ccc(CN2CCN(CCCCN3CCN(Cc4ccc(OC)c(OC)c4OC)CC3)CC2)c(OC)c1OC [Example 7]
Coronary perfusion pressure (Δ%) [1]: -18.8 Δ%
Heart rate (Δ%) [1]: -37.5 Δ%
Heart Movements: Amplitude [1]: .dwnarw.
Heart Movements: Tonus [1]: →
LD50 [2]: 239 mg/kg

COc1ccc(CN2CCN(CCCCCCN3CCN(Cc4ccc(OC)c(OC)c4OC)CC3)CC2)c(OC)c1OC [Example 8]
Coronary perfusion pressure (Δ%) [1]: -19.2 Δ%
Heart rate (Δ%) [1]: -19.1 Δ%
Heart Movements: Amplitude [1]: .dwnarw.
Heart Movements: Tonus [1]: →
LD50 [2]: 84 mg/kg

COc1ccc(CN2CCN(CCCCCCCCN3CCN(Cc4ccc(OC)c(OC)c4OC)CC3)CC2)c(OC)c1OC [Example 9]
Coronary perfusion pressure (Δ%) [1]: -10.0 Δ%
Heart rate (Δ%) [1]: -28.6 Δ%
Heart Movements: Amplitude [1]: .dwnarw.
Heart Movements: Tonus [1]: .dwnarw.

COc1ccc(CN2CCN(CCO)CC2)c(OC)c1OC [Example 10]
Coronary perfusion pressure (Δ%) [1]: -4.4 Δ%
Heart rate (Δ%) [1]: -10.7 Δ%
Heart Movements: Amplitude [1]: .dwnarw.
Heart Movements: Tonus [1]: .dwnarw.
LD50 [2]: 567 mg/kg

COc1ccc(CN2CCN(CC(C)O)CC2)c(OC)c1OC (centres unmarked) [Example 11]
Coronary perfusion pressure (Δ%) [1]: -11.1 Δ%
Heart rate (Δ%) [1]: -49.4 Δ%
Heart Movements: Amplitude [1]: .dwnarw.
Heart Movements: Tonus [1]: →
LD50 [2]: 336 mg/kg

COc1ccc(CN2CCN(CC(O)CO)CC2)c(OC)c1OC (centres unmarked) [Example 12]
Heart rate (Δ%) [1]: -16.1 Δ%
Heart Movements: Amplitude [1]: .dwnarw.
Heart Movements: Tonus [1]: →
LD50 [2]: 724 mg/kg

COc1ccc(CN2CCN(CC(O)c3ccccc3)CC2)c(OC)c1OC (centres unmarked) [Example 13]
Coronary perfusion pressure (Δ%) [1]: -16.0 Δ%
Heart rate (Δ%) [1]: -54.5 Δ%
Heart Movements: Amplitude [1]: .dwnarw.
Heart Movements: Tonus [1]: →
LD50 [2]: 106 mg/kg

COc1ccc(CN2CCN(CC(O)COc3ccccc3)CC2)c(OC)c1OC (centres unmarked) [Example 14]
Coronary perfusion pressure (Δ%) [1]: -20.0 Δ%
Heart rate (Δ%) [1]: -48.7 Δ%
Heart Movements: Amplitude [1]: .dwnarw.
Heart Movements: Tonus [1]: .dwnarw.
LD50 [2]: 142 mg/kg
